Experimental findings from patent US20220106301A1, “ACETAMIDO-PHENYLBENZAMIDE DERIVATIVES AND METHODS OF USING THE SAME” (Athenex, Inc., priority 2020, published 2022) are described below.

One may read the IC50 as the point on the concentration scale where inhibition reaches its midpoint.

Chain of CYP3A4 (P08684 whole entry): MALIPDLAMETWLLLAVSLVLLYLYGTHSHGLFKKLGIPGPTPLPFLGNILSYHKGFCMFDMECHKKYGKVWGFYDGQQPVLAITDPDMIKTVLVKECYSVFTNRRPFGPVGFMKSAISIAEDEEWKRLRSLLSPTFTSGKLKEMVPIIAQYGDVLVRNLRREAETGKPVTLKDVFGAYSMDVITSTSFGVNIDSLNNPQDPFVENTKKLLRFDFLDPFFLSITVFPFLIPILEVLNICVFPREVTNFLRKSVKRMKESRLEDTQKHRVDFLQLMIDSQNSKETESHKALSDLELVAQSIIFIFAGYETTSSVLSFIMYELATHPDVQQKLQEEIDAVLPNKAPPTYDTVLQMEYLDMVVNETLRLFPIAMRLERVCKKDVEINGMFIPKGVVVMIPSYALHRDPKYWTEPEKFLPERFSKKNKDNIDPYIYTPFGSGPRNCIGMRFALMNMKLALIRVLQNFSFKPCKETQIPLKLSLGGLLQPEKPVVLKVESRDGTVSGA

This assay has as its target CYP3A4 (Homo sapiens, UniProt P08684). The experiment in a line: Determination of CYP3A4 inhibitory activity (human liver microsome, Luciferin-IPA). To be noted: CYP3A4 IC50 (nM), 37° C. 11 minutes. In a few lines: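 Final compound concentrations 37, 111, 333, 1000 and 3000 nM; reaction at 37° C for 11 min, then luciferin detection reagent 5 min at room temperature with luminescence read-out. IC50 from nonlinear regression of dose-response.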
(Liver microsomes are vesicles of endoplasmic reticulum, rich in cytochrome P450 enzymes.)
The compound `CCN(CCc1ccc(NC(=O)c2cc(OC)c(OC)cc2NC(=O)c2cc(=O)c3ccccc3o2)cc1)Cc1ccc(C)c2ncccc12` [Compound 144] returned a 50% inhibitory concentration (IC50) greater than 1000 nM. `COc1cc(NC(=O)c2cc(=O)c3ccccc3o2)c(C(=O)Nc2ccc(CCN(C)Cc3cnc(-n4ccnc4)nc3)cc2)cc1OC` [Compound 126]: the IC50 fell in the range of 500 to 1000 nM.

For the compound `COc1cc2c(cc1OC)CN(CCc1ccc(NC(=O)c3ccc(C(=O)OCc4ccncc4)cc3NC(=O)c3cc(=O)c4ccccc4o3)cc1)CC2` [Compound 81], the 50% inhibitory concentration (IC50) is greater than 1000 nM. `COc1cncc(CN(CCc2ccc(NC(=O)c3cc(OC)c(OC)cc3NC(=O)c3cc(=O)c4ccccc4o3)cc2)Cc2cnc(-c3ccccc3F)nc2)c1` [Compound 230]: the 50% inhibitory concentration (IC50) lay in the range of 100 to 250 nM. In turn, `COc1cc(NC(=O)c2cc(=O)c3ccccc3o2)c(C(=O)Nc2ccc(CCN(Cc3cccc(-n4ccnc4)c3)C(C)C)cc2)cc1OC` [Compound 10] gave a concentration for half-maximal inhibition (IC50) of 250 to 500 nM.

In the case of `CCN(CCc1ccc(NC(=O)c2cc(OC)c(OC)cc2NC(=O)c2cc(=O)c3ccccc3o2)cc1)Cc1ccc2c(c1)ncn2C` [Compound 109], the half-maximal inhibitory concentration (IC50) is greater than 1000 nM. The figure for `COc1cc(NC(=O)c2cc(=O)c3ccccc3o2)c(C(=O)Nc2ccc(CCN(C)Cc3ccc(-c4cncs4)cc3)cc2)cc1OC` [Compound 118] is 250 to 500 nM. `COc1cc(NC(=O)c2cc(=O)c3ccccc3o2)c(C(=O)Nc2ccc(CCN(Cc3ccc4c(cnn4C)c3)C(=O)OC(C)(C)C)cc2)cc1OC` [Compound 231]: the half-inhibitory concentration (IC50) is greater than 1000 nM. As to `CCN(CCc1ccc(NC(=O)c2cc(OC)c(OC)cc2NC(=O)c2cc(=O)c3ccccc3o2)cc1)Cc1ccc(OC)c(OCCn2ccnc2)c1` [Compound 132], the IC50 fell in the range of 100 to 250 nM. In the case of `COc1cc(NC(=O)c2cc(=O)c3ccccc3o2)c(C(=O)Nc2ccc(CCN(Cc3ccc(-n4ccnc4C)cc3)Cc3cccc(-n4ccnc4)c3)cc2)cc1OC` [Compound 243], the half-maximal inhibitory concentration (IC50) is greater than 1000 nM. For the compound `COc1cc(NC(=O)c2cc(=O)c3ccccc3o2)c(C(=O)Nc2ccc(CCN(Cc3cccnc3)Cc3ccc4c(c3)CCO4)cc2)cc1OC` [Compound 45], the IC50 fell in the range of 250 to 500 nM. Turning to `CCN(CCc1ccc(NC(=O)c2cc(OC)c(OC)cc2NC(=O)c2cc(=O)c3ccccc3o2)cc1)Cc1ccc2oncc2c1` [Compound 165], the IC50 is greater than 1000 nM. On to `COc1cc(NC(=O)c2cc(=O)c3ccccc3o2)c(C(=O)Nc2ccc(CCN(Cc3ccc(-n4ccnc4)cc3)Cc3ccc4cnn(C)c4c3)cc2)cc1OC` [Compound 186], for which the 50% inhibitory concentration (IC50) is 100 to 250 nM. As to `COc1cncc(CN(CCc2ccc(NC(=O)c3cc(OC)c(OC)cc3NC(=O)c3ccc4ccccc4n3)cc2)Cc2ccc3c(cnn3C)c2)c1` [Compound 53], the IC50 lay within 100 to 250 nM. Regarding `COc1cncc(CN(CCc2ccc(NC(=O)c3cc(OC)c(OC)cc3NC(=O)c3cc(=O)c4ccccc4o3)cc2)Cc2ccc3c(cnn3C)c2)c1` [Compound 48], the IC50 fell in the range of 100 to 250 nM. Compound `COc1cc2c(cc1OC)CN(CCc1ccc(NC(=O)c3ccc(C(=O)OCCCn4ccnc4)cc3NC(=O)c3cc(=O)c4ccccc4o3)cc1)CC2` [Compound 262] gave an IC50 of less than 100 nM. `COc1cc(NC(=O)c2cc(=O)c3ccccc3o2)c(C(=O)Nc2ccc(CCN(C)Cc3ccc4c(ccn4C)c3)cc2)cc1OC` [Compound 190] returned a 50% inhibitory concentration (IC50) greater than 1000 nM. Compound `COc1cc(NC(=O)c2cnc3ccccc3c2)c(C(=O)Nc2ccc(CCN(Cc3ccc(-n4ccnc4)cc3)Cc3ccc4c(cnn4C)c3)cc2)cc1OC` [Compound 145] registered an IC50 of 500 to 1000 nM.

`COc1ccc(CN(CCc2ccc(NC(=O)c3ccc(C(=O)O)cc3NC(=O)c3cc(=O)c4ccccc4o3)cc2)Cc2ccc(OC)c(OC)c2)cc1OC` [Compound 264]: the IC50 is greater than 1000 nM.

The compound `COc1cncc(CN(CCc2ccc(NC(=O)c3ccc(C(=O)O)cc3NC(=O)c3cc(=O)c4ccccc4o3)cc2)Cc2ccc3c(cnn3C)c2)c1` [Compound 259] came in with a 50% inhibitory concentration (IC50) greater than 1000 nM.

The compound `COc1cc(NC(=O)c2cc(=O)c3ccccc3o2)c(C(=O)Nc2ccc(CCN3CCc4ccncc4C3)cc2)cc1OC` [Compound 78] returned a 50% inhibitory concentration (IC50) of 500 to 1000 nM. `COc1cc(NC(=O)c2cnc3ccccc3n2)c(C(=O)Nc2ccc(CCN(Cc3cncc(C)c3)Cc3ccc4c(cnn4C)c3)cc2)cc1OC` [Compound 70] registered an IC50 of 100 to 250 nM. On to `COc1cc(NC(=O)c2cc(=O)c3ccccc3o2)c(C(=O)Nc2ccc(CCN(Cc3ccc4c(cnn4C)c3)Cc3ccc4c(cnn4C)c3)cc2)cc1OC` [Compound 137], for which the IC50 is greater than 1000 nM. On to `COc1cc(NC(=O)c2cc(=O)c3ccccc3o2)c(C(=O)Nc2ccc(CCN(Cc3ccc4cnn(C)c4c3)Cc3ncc[nH]3)cc2)cc1OC` [Compound 36], for which the IC50 fell in the range of 100 to 250 nM. Consider `COc1cc(NC(=O)c2cc(=O)c3ccccc3o2)c(C(=O)Nc2ccc(CCNCc3ccc4c(cnn4C)c3)cc2)cc1OC` [Compound 139], for which the IC50 was greater than 1000 nM. On to `COc1ccc(CN(CCc2ccc(NC(=O)c3cc(OC)c(OC)cc3NC(=O)c3cc(=O)c4ccccc4o3)cc2)Cc2cccnc2)cc1OC` [Compound 29], for which the IC50 lay in the range of 100 to 250 nM. In turn, `COc1cc(NC(=O)c2cc(=O)c3ccccc3o2)c(C(=O)Nc2ccc(CCN(Cc3ccc(N)nc3)Cc3ccc4c(cnn4C)c3)cc2)cc1OC` [Compound 224] returned an IC50 greater than 1000 nM.

As to `COC(=O)c1ccc(C(=O)Nc2ccc(CCN(Cc3cncc(OC)c3)Cc3cncc(OC)c3)cc2)c(NC(=O)c2cc(=O)c3ccccc3o2)c1` [Compound 258], the concentration for half-maximal inhibition (IC50) is less than 100 nM. As to `COc1cc(NC(=O)c2cc(=O)c3ccccc3o2)c(C(=O)Nc2ccc(CCN(C)C(=O)c3cccc(-n4ccnc4)c3)cc2)cc1OC` [Compound 122], the IC50 fell in the range of 500 to 1000 nM.

`COc1cc(NC(=O)c2cc(=O)c3ccccc3o2)c(C(=O)Nc2ccc(CCN(Cc3cncc(OCCN(C)C)c3)Cc3ccc4c(cnn4C)c3)cc2)cc1OC` [Compound 244]: the half-inhibitory concentration (IC50) was greater than 1000 nM. The figure for `CCN(CCc1ccc(NC(=O)c2cc(OC)c(OC)cc2NC(=O)c2cc(=O)c3ccccc3o2)cc1)Cc1cccn1Cc1cccnc1` [Compound 25] is 250 to 500 nM; for `COc1cc(NC(=O)c2cnc3ccccc3n2)c(C(=O)Nc2ccc(CCN(Cc3ccc4c(cnn4C)c3)Cc3ccc4cnn(C)c4c3)cc2)cc1OC` [Compound 172] it is greater than 1000 nM. The result for `CCN(CCc1ccc(NC(=O)c2cc(OC)c(OC)cc2NC(=O)c2cc(=O)c3ccccc3o2)cc1)Cc1cccc(-n2cnc(C)c2)c1` [Compound 107] reads 100 to 250 nM; that for `CCN(CCc1ccc(NC(=O)c2cc(OC)c(OC)cc2NC(=O)c2cc(=O)c3ccccc3o2)cc1)Cc1ccc2cn[nH]c2c1` [Compound 185], greater than 1000 nM. The compound `COc1ccc(CN(CCc2ccc(NC(=O)c3cc(OC)c(OC)cc3NC(=O)c3cc(=O)c4ccccc4o3)cc2)Cc2cccc(-n3ccnc3)c2)cc1OC` [Compound 27] registered an IC50 of 100 to 250 nM. Consider `CCOc1cncc(CN(CCc2ccc(NC(=O)c3cc(OC)c(OC)cc3NC(=O)c3cc(=O)c4ccccc4o3)cc2)Cc2ccc3c(cnn3C)c2)c1` [Compound 55], for which the IC50 lay in the range of 100 to 250 nM. The compound `COc1cc(NC(=O)c2cc(=O)c3ccccc3o2)c(C(=O)Nc2ccc(CCN(Cc3cncc(OCCN4CCOCC4)c3)Cc3ccc4c(cnn4C)c3)cc2)cc1OC` [Compound 240] registered an IC50 of 250 to 500 nM. The figure for `COc1cc(NC(=O)c2cc(=O)c3ccccc3o2)c(C(=O)Nc2ccc(CCN(C)Cc3cccc(OC[C@@H]4CO[C@@](Cn5ccnc5)(c5ccc(Cl)cc5Cl)O4)c3)cc2)cc1OC` [Compound 17] is less than 100 nM; for `CCN1CNC=C1CN(CCc1ccc(NC(=O)c2cc(OC)c(OC)cc2NC(=O)c2cc(=O)c3ccccc3o2)cc1)Cc1ccc2cnn(C)c2c1` [Compound 37] it is 100 to 250 nM; for `COc1cc2c(cc1OC)CN(CCc1ccc(NC(=O)c3ccc(C(=O)OCc4cccnc4)cc3NC(=O)c3cc(=O)c4ccccc4o3)cc1)CC2` [Compound 80] it is 500 to 1000 nM. With `CCN(CCc1ccc(NC(=O)c2cc(OC)c(OC)cc2NC(=O)c2cc(=O)c3ccccc3o2)cc1)Cc1ccc(OC)c(Cn2cncn2)c1` [Compound 24], the 50% inhibitory concentration (IC50) was 100 to 250 nM.

In the case of `COc1cc(NC(=O)c2cc(=O)c3ccccc3o2)c(C(=O)Nc2ccc(CCN)cc2)cc1OC` [Compound 215], the half-maximal inhibitory concentration (IC50) was greater than 1000 nM. The figure for `COc1cncc(CN(CCc2ccc(NC(=O)c3cc(OC)c(OC)cc3NC(=O)c3cc(=O)c4ccccc4o3)cc2)Cc2ccc3c(c2)n(C)c(=O)n3C)c1` [Compound 69] is 100 to 250 nM; for `COc1cc(NC(=O)c2cc(=O)c3ccccc3o2)c(C(=O)Nc2ccc(CCN(Cc3cccnc3)Cc3ccc4c(c3)n(C)c(=O)n4C)cc2)cc1OC` [Compound 44] it is 100 to 250 nM.

In turn, `CCOc1cncc(CN(CCc2ccc(NC(=O)c3cc(OC)c(OC)cc3NC(=O)c3cc(=O)c4cc(C)ccc4o3)cc2)Cc2ccc3c(cnn3C)c2)c1` [Compound 73] registered a half-maximal inhibitory concentration (IC50) of 250 to 500 nM. The result for `CCn1c2ccccc2c2cc(CN(CCc3ccc(NC(=O)c4cc(OC)c(OC)cc4NC(=O)c4cc(=O)c5ccccc5o4)cc3)Cc3cccc(-n4ccnc4)c3)ccc21` [Compound 212] reads greater than 1000 nM; that for `COc1cc(NC(=O)c2cc(=O)c3ccccc3o2)c(C(=O)Nc2ccc(CCN(C)Cc3ccc(-c4ncco4)cc3)cc2)cc1OC` [Compound 114], greater than 1000 nM. The result for `COc1cc(NC(=O)c2cc(=O)c3cc(C)ccc3o2)c(C(=O)Nc2ccc(CCN(Cc3cncc(C(C)C)c3)Cc3ccc4c(cnn4C)c3)cc2)cc1OC` [Compound 76] reads greater than 1000 nM. Consider `CCN(CCc1ccc(NC(=O)c2cc(OC)c(OC)cc2NC(=O)c2cc(=O)c3ccccc3o2)cc1)Cc1cccc(-c2ccco2)c1` [Compound 141], for which the half-inhibitory concentration (IC50) is greater than 1000 nM. Consider `COc1cncc(CN(CCc2ccc(NC(=O)c3cc(OC)c(OC)cc3NC(=O)c3cc(=O)c4ccccc4o3)cc2)Cc2cccc(-n3ccnc3)c2)c1` [Compound 217], for which the IC50 lay in the range of 100 to 250 nM. The figure for `COc1cc(NC(=O)c2cc(=O)c3cc(C)ccc3o2)c(C(=O)Nc2ccc(CCN(Cc3cccnc3)Cc3ccc4c(cnn4C)c3)cc2)cc1OC` [Compound 38] is 100 to 250 nM. Consider `Cn1ncc2cc(CN(CCc3ccc(NC(=O)c4ccc(C(=O)OCc5cccnc5)cc4NC(=O)c4cc(=O)c5ccccc5o4)cc3)Cc3ccc4c(cnn4C)c3)ccc21` [Compound 268], for which the IC50 is greater than 1000 nM.
